# Assay results as given in US20170273985A1, “TRICYCLIC DERIVATIVE” (Sunovion Pharmaceuticals Inc., priority 2014, published 2017).
# Key:
# Type in all cases: biochemical
# [1] = biological target: PDE1A3 (Homo sapiens, UniProt P54750); assay: In vitro HTRF PDE1 inhibition assay (PDE1A3)
# Text: (§1) An exemplary procedure for the in vitro Homogenous Time Resolved Fluorescence assay, which can be used to determine the inhibitory action of compounds of the invention toward PDE1 or its isoforms, follows. The HTRF PDE1 assay utilized the HTRF (Homogenous Time Resolved Fluorescence) technology, which is based on the competition between unlabeled cyclic nucleotide and cyclic nucleotide labeled with XL665 for the binding to cyclic nucleotide-specific antibody labeled with cryptate. The HTRF signal is thus inversely proportional to the concentration of cyclic nucleotide being measured. Since phosphodiesterases break down cyclic nucleotides the HTRF signal was used to determine PDE activity. The Cisbio cGMP HTRF assay kit (Cat no: 62GM2PEC) was utilized. Cyclic GMP was diluted to 200 nM in HTRF assay buffer (1 mM CaCl2, 10 mM MgCl2, 10 mM Tris-HCl, 0.1% BSA, pH 7.4). 10 μl of compound or DMSO was diluted in 200 nM cyclic GMP solution and added to wells of a 96 well white plate to give 100 nM cyclic GMP in 1% DMSO final concentration. PDE (1A3, 1B or IC) was diluted to 2× working concentration in HTRF assay buffer with 2 μg/ml calmodulin, and 10 μl was added to initiate the reaction. The plate was then incubated for 45 minutes at 37° C. d2-Labelled cyclic GMP and anti-cGMP cryptate were diluted in 50 mM phosphate buffer, 0.8 M KF, 1% Triton X100, 0.2% BSA, pH 7.0. Following incubation 10 μl d2-cGMP, then 10 μl anti cGMP cryptate were added to each well and the plate was incubated for 45 minutes at room temperature. The plate was then read on Perkin Elmer Victor at 2 different FRET readings ex/emm 340 nm/665 nm and 340 nm/615 nm. Compounds having an IC50 of <1 μM, are denoted as +++. Compounds having an IC50 of 1−10 μM, are denoted as ++. Compounds having an IC50 of 10-100 μM, are denoted as +.
# [2] = biological target: PDE1B (Homo sapiens, UniProt Q01064); assay: In vitro HTRF PDE1 inhibition assay (PDE1B)
# Text: as §1
# [3] = biological target: PDE1C (Homo sapiens, UniProt Q14123); assay: In vitro HTRF PDE1 inhibition assay (PDE1C)
# Text: as §1
Compound,IC50 ([2]; Table 22) [nM],IC50 ([2]; Table 25) [nM],also measured
CC(C)c1ncc2c(=O)n3c(nn12)N(CCC1CCOCC1)CCC3 [Example 24],< 1000,,IC50 ([1]; Table 23): < 1000 nM; IC50 ([3]; Table 24): < 1000 nM
CCN1c2nn3c(C4CCOCC4)ncc3c(=O)n2CC1c1ccc(OC)cc1 (racemic) [Example 66],< 1000,,IC50 ([1]; Table 23): < 1000 nM; IC50 ([3]; Table 24): 1000 to 10000 nM
CC(C)CN1CCCn2c1nn1c(C(C)C)ncc1c2=O [Example 16],< 1000,,IC50 ([1]; Table 23): < 1000 nM; IC50 ([3]; Table 24): < 1000 nM
O=c1c2cnc(C3CCOCC3)n2nc2n1CCCN2CCC1(C(F)(F)F)CC1 [Example 188],,,IC50 ([1]; Table 26): < 1000 nM; IC50 ([3]; Table 27): < 1000 nM
CC(C)c1ncc2c(=O)n3c(nn12)N(Cc1ccc(C#N)cc1)CCC3 [Example 30],< 1000,,IC50 ([1]; Table 23): < 1000 nM; IC50 ([3]; Table 24): < 1000 nM
CC(C)c1ncc2c(=O)n3c(nn12)N(CC1CCOCC1)CCC3 [Example 25],< 1000,,IC50 ([1]; Table 23): < 1000 nM; IC50 ([3]; Table 24): < 1000 nM
CN1c2nn3c(C4CCOCC4)ncc3c(=O)n2CCC1c1ccc(Cl)cc1 (stereo not drawn) [Example 69],< 1000,,IC50 ([1]; Table 23): < 1000 nM; IC50 ([3]; Table 24): 1000 to 10000 nM
CC(C)(C)CCN1CCn2c1nn1c(C3CCOCC3)ncc1c2=O [Example 55],< 1000,,IC50 ([1]; Table 23): < 1000 nM; IC50 ([3]; Table 24): < 1000 nM
COc1ccccc1CCCN1CCCn2c1nn1c(C(C)C)ncc1c2=O [Example 48],< 1000,,
CCc1ccc([C@@H]2Cn3c(nn4c(C5CCOCC5)ncc4c3=O)N2CC)cn1 [Example 89],1000 to 10000,,
"CC(C)c1ncc2c(=O)n3c(nn12)OC(c1ccccc1)CC3 (stereo not drawn) [Example 126, 9-Isopropyl-2-phenyl-3,4-dihydroimidazo[5,1-f][1,3]oxazino[2,3-c][1,2,4]triazin-6(2H)-one]",< 1000,,
CC(C)c1ncc2c(=O)n3c(nn12)N(CCc1ccc(F)cc1)CCC3 [Example 45],< 1000,,
CCc1ccc([C@H]2Cn3c(nn4c(C5CCOCC5)ncc4c3=O)N2CC(C)C)cn1 [Example 92],1000 to 10000,,
CC(C)c1ncc2c(=O)n3c(nn12)N(CCCCO)CCC3 [Example 105],< 1000,,
CC(C)c1ncc2c(=O)n3c(nn12)N(CC(=O)N1CCOCC1)CCC3 [Example 28],1000 to 10000,,
"CC(C)c1ncc2c(=O)n3c(nn12)N(CCc1cccc(C#N)c1)CCC3 [Example 115, 3-(2-(9-Isopropyl-6-oxo-2,3,4,6-tetrahydro-1H-imidazo[1,5-f]pyrimido[2,1-c][1,2,4]triazin-1-yl)ethyl)benzonitrile]",< 1000,,
O=c1c2cnc(C3CCOCC3)n2nc2n1CCN2CCc1ccc(F)cc1 [Example 57],< 1000,,
CC(C)c1ncc2c(=O)n3c(nn12)N(Cc1ccc(Cl)cc1)CCC3 [Example 31],< 1000,,
CC(C)c1ncc2c(=O)n3c(nn12)N(C)CCC3 [Example 14],< 1000,,
CN1c2nn3c(C4CCOCC4)ncc3c(=O)n2CC1c1ccc(Cl)cc1 (racemic) [Example 68],< 1000,,
CC(C)c1ncc2c(=O)n3c(nn12)N(CCCCCO)CC3 [Example 102],< 1000,,

Compound,IC50 ([2]; Table 22) [nM],IC50 ([2]; Table 25) [nM],also measured
CC(C)c1ncc2c(=O)n3c(nn12)N(CCC1CCOCC1)CC3 [Example 4],< 1000,,
CC(C)c1ncc2c(=O)n3c(nn12)OC(Cc1ccc(Cl)cc1)CC3 (stereo not drawn) [Example 132],< 1000,,
O=c1c2cnc(C3CCOCC3)n2nc2n1CCCN2CCc1ccccc1 [Example 62],< 1000,,
CC(C)c1ncc2c(=O)n3c(nn12)N(CCCN1CCOCC1)CCC3 [Example 27],< 1000,,
N#Cc1ccc(CN2CCCn3c2nn2c(C4CCOCC4)ncc2c3=O)cc1 [Example 61],1000 to 10000,,
COc1cccc(C2CCn3c(nn4c(C5CCCC5)ncc4c3=O)C2)c1 (stereo not drawn) [Example 135],1000 to 10000,,
O=c1c2cnc(C3CCOCC3)n2nc2n1CCN2CCCCCO [Example 108],< 1000,,
CCCCN1CCn2c1nn1c(C3CCOCC3)ncc1c2=O [Example 53],< 1000,,
"CC(C)c1ncc2c(=O)n3c(nn12)N(C(=O)CCN1CCOCC1)CCC3 [Example 125, 9-Isopropyl-1-(3-morpholinopropanoyl)-3,4-dihydro-1H-imidazo[1,5-f]pyrimido[2,1-c][1,2,4]triazin-6(2H)-one]",1000 to 10000,,
"O=c1c2cnc(C3CCOCC3)n2nc2n1CC(c1ccc(Cl)cc1)C2 (stereo not drawn) [Example 138, 7-(4-Chlorophenyl)-3-(tetrahydro-2H-pyran-4-yl)-7,8-dihydro-6H,10H-imidazo[5,1-f]pyrrolo[2,1-c][1,2,4]triazin-10-one]",1000 to 10000,,
CCc1ccc(C2Cn3c(nn4c(C(C)C)ncc4c3=O)N2CC(C)C)cn1 (stereo not drawn) [Example 98],1000 to 10000,,
"CC(C)c1ncc2c(=O)n3c(nn12)N(CCC1CCNCC1)CCC3 [Example 113, 9-Isopropyl-1-[2-(4-piperidinyl)ethyl]-1,2,3,4-tetrahydro-6H-imidazo[5,1-f]pyrimido[2,1-c][1,2,4]triazin-6-one]",1000 to 10000,,
CC(C)c1ncc2c(=O)n3c(nn12)N(CCC1CCC(F)(F)CC1)CCC3 [Example 21],< 1000,,
CCCN1c2nn3c(C(C)C)ncc3c(=O)n2CC1c1ccc(CC)nc1 (stereo not drawn) [Example 97],1000 to 10000,,
CC(C)c1ncc2c(=O)n3c(nn12)N(Cc1cccc(C(F)(F)F)c1)CCC3 [Example 32],< 1000,,
CC(C)c1ncc2c(=O)n3c(nn12)N(CCCC1CCOCC1)CCC3 [Example 29],< 1000,,
COc1ccc(C2CCn3c(nn4c(C(C)C)ncc4c3=O)O2)cc1 (stereo not drawn) [Example 129],< 1000,,
CCCN1c2nn3c(C4CCOCC4)ncc3c(=O)n2C[C@@H]1c1ccc(CC)nc1 [Example 90],< 1000,,
CCCN1c2nn3c(C4CCOCC4)ncc3c(=O)n2C[C@H]1c1ccc(CC)nc1 [Example 91],1000 to 10000,,
CC(C)c1ncc2c(=O)n3c(nn12)N(CCOC(F)(F)F)CCC3 [Example 22],< 1000,,

# Continued, in another order:
IC50 ([2]; Table 22) [nM],IC50 ([2]; Table 25) [nM],Compound,also measured
,< 1000,O=c1c2cnc(C3CCOCC3)n2nc2n1CCCN2CC1CCC(F)(F)CC1 [Example 190],IC50 ([1]; Table 26): < 1000 nM; IC50 ([3]; Table 27): < 1000 nM
,< 1000,O=c1c2cnc(C3CCOCC3)n2nc2n1CCN2CC1(C(F)(F)F)CC1 [Example 159],IC50 ([1]; Table 26): < 1000 nM; IC50 ([3]; Table 27): < 1000 nM
,< 1000,O=c1c2cnc(C3CCOCC3)n2nc2n1CCN2CC1CCCCC1 [Example 153],IC50 ([1]; Table 26): < 1000 nM; IC50 ([3]; Table 27): < 1000 nM
,< 1000,CC(C)CCN1CCn2c1nc1c(cnn1C1CCOCC1)c2=O [Example 213],
,< 1000,O=c1c2cnn(C3CCOCC3)c2nc2n1CCN2CCCC(F)(F)F [Example 212],
,< 1000,CO[C@H]1CC[C@@H](CN2CCCn3c2nn2c(C4CCOCC4)ncc2c3=O)CC1 [Example 194],
,< 1000,CC(C)n1ncc2c(=O)n3c(nc21)N(Cc1ccc(C2CCOCC2)cc1)CCC3 [Example 216],
,< 1000,COc1cccc(CN2CCn3c2nn2c(C4CCOCC4)ncc2c3=O)c1 [Example 158],
,< 1000,CC(C)(C)CCN1CCCn2c1nn1c(C3CCOCC3)ncc1c2=O [Example 186],
,< 1000,O=c1c2cnn(C3CCOCC3)c2nc2n1CCCN2CCCC(F)(F)F [Example 222],
,< 1000,O=c1c2cnn(C3CCOCC3)c2nc2n1CCCN2CC1CC1(F)F (stereo not drawn) [Example 227],
,< 1000,O=c1c2cnn(C3CCOCC3)c2nc2n1CCCN2CCCCC(F)(F)F [Example 225],
,< 1000,CO[C@@H](C)c1ncc2c(=O)n3c(nn12)N(CCCC(F)(F)F)CC3 [Example 230],
,< 1000,CC(C)CN1CC(F)(F)Cn2c1nn1c(C3CCOCC3)ncc1c2=O [Example 202],
,< 1000,CC(C)n1ncc2c(=O)n3c(nc21)N(Cc1ccc(C2CCOCC2)cc1)CC3 [Example 204],
,< 1000,O=c1c2cnc(C3CCOCC3)n2nc2n1CCN2CC1CCCC1 [Example 152],
,< 1000,O=c1c2cnc(C3CCOCC3)n2nc2n1CCN2CCc1cccc(F)c1 [Example 147],
,< 1000,COCCN1CCn2c1nn1c(C(C)C)ncc1c2=O [Example 139],
,1000 to 10000,"Cc1nc(C2CCOCC2)n2nc3n(c(=O)c12)CCN3CCC(C)C [Example 234, 6-Methyl-1-(3-methylbutyl)-8-(tetrahydro-2H-pyran-4-yl)-2,3-dihydro-1H,5H-diimidazo[2,1-c:5′,1′-f][1,2,4]triazin-5-one]",
,< 1000,CC(C)CN1CCCn2c1nn1c(C3CCOCC3)ncc1c2=O [Example 183],
,< 1000,CC(C)c1ncc2c(=O)n3c(nn12)N(CCc1cccnc1)CC3 [Example 140],
,< 1000,O=c1c2cnc(C3CCC3)n2nc2n1CCCN2CC1CCOCC1 [Example 178],
